What all share (assay type): physicochemical
A short description of data set [1]: ThermoGravimetry (loss on drying). As to conditions: TG. The text has this: Thermal gravimetry data were collected with a TG instrument from the Q-series of TA Instruments. This method measures weight changes in a material as a function of temperature under a controlled atmosphere.
Data set [2] can be described thus: Dynamic vapour sorption (sorption isotherms, water uptake). As to conditions: for hygroscopic behavior: uptake of water: 25° C. The text has this: Sorption isotherms were generated using an IGAsorp water sorption monitor from Hiden Isochema. […] For BR salt form only: Sorption isotherms were registered on a DVS-1 water sorption monitor from Surface Measurement Systems.

Data set [3] in a line: X-ray powder diffraction: crystallinity and polymorphism. As to conditions: for indications for polymorphism: several crystallization experiments. The text has this:
X-ray powder diagrams were generated using a STOE-STADI P-diffractometer in transmission mode fitted with a MYTHEN-detector and a Cu-anode as X-ray source with monochromatic CuKα1 radiation (λ=1.54056 Å, 40 kV, 40 mA).

Read-outs that look alike come from different tables or passages of the source.

Consider `CCS(=O)(=O)O.CO[C@H]1COCC[C@H]1NC1CCN(C(=O)c2ncnc(NC[C@H]3CCC[C@@H](c4ccc(C)cc4)O3)c2C)CC1` [esilate salt of compound I, (4-((3R,4R)-3-methoxytetrahydro-pyran-4-ylamino)piperidin-1-yl)(5-methyl-6-(((2R,6S)-6-(p-tolyl)tetrahydro-2H-pyran-2-yl)methylamino)pyrimidin-4-yl)methanone esilate], for which the loss on drying in data set [1] is 2.4%. For the same molecule, the “hygroscopic behavior: uptake of water” value in data set [2] (up to 80% r.h. (humidity range 10-80%)) came to 20%; in data set [2] (up to 80% r.h. (humidity range 10-80%), listed as Esilate Salt), 20% uptake; in data set [2] (up to 90% r.h.), 45% uptake. For the same molecule, the “hygroscopic behavior: deliquescence” value in data set [2] (up to 80% r.h., listed as Esilate Salt) is “deliquescent”; in data set [2] (up to 80% r.h., listed as esilate) it was “irreversibly deliquescent”; in data set [2] (up to 90% r.h.) it was “deliquescent”. Further, the crystallinity result in data set [3] is given as “high”; in data set [3] (listed as esilate salt of compound of formula (I)), “high crystallinity”. The results for the indications for polymorphism result in data set [3] (listed as Esilate Salt) and in data set [3] (listed as esilate) were “no” and “only one polymorphic form”, respectively.
Consider `Br.CO[C@H]1COCC[C@H]1NC1CCN(C(=O)c2ncnc(NC[C@H]3CCC[C@@H](c4ccc(C)cc4)O3)c2C)CC1` [hydrobromide salt of compound I, (4-((3R,4R)-3-methoxytetrahydro-pyran-4-ylamino)piperidin-1-yl)(5-methyl-6-(((2R,6S)-6-(p-tolyl)tetrahydro-2H-pyran-2-yl)methylamino)pyrimidin-4-yl)methanone hydrobromide], for which the loss on drying in data set [1] is recorded as 2.9%. The “hygroscopic behavior: uptake of water” value in data set [2] (up to 80% r.h. (humidity range 10-80%), hydrobromide) amounted to 4.5%; in data set [2] (up to 80% r.h. (humidity range 10-80%), listed as Hydrobromide Salt, hydrobromide), 4.5%; in data set [2] (up to 90% r.h.), 20%. Also, the “hygroscopic behavior: deliquescence” value in data set [2] (up to 80% r.h., listed as Hydrobromide Salt, hydrobromide) is “deli-”; in data set [2] (up to 80% r.h., listed as hydrobromide, hydrobromide) it was “irreversibly deliquescent”; in data set [2] (up to 90% r.h.) it was “deli-”. For the same molecule, the crystallinity result is given as “medium” in data set [3] (hydrobromide) and “medium crystallinity” in data set [3] (listed as hydrobromide salt of compound of formula (I), hydrobromide). The indications for polymorphism result in data set [3] (listed as Hydrobromide Salt, hydrobromide) is “Yes”; in data set [3] (listed as hydrobromide, hydrobromide), “Different polymorphic modifications”.
Turning to `CO[C@H]1COCC[C@H]1NC1CCN(C(=O)c2ncnc(NC[C@H]3CCC[C@@H](c4ccc(C)cc4)O3)c2C)CC1.Cl` [hydrochloride salt of compound I, (4-((3R,4R)-3-methoxytetrahydro-pyran-4-ylamino)piperidin-1-yl)(5-methyl-6-(((2R,6S)-6-(p-tolyl)tetrahydro-2H-pyran-2-yl)methylamino)pyrimidin-4-yl)methanone hydrochloride], the loss on drying in data set [1] came out at 2.8%. In addition, the “hygroscopic behavior: uptake of water” value was 15% in data set [2] (up to 80% r.h. (humidity range 10-80%), hydrochloride); 15% uptake in data set [2] (up to 80% r.h. (humidity range 10-80%), listed as Hydrochloride Salt, hydrochloride); 40% uptake in data set [2] (up to 90% r.h.). Also, the “hygroscopic behavior: deliquescence” value was “deliquescent” in data set [2] (up to 80% r.h., listed as Hydrochloride Salt, hydrochloride); “irreversibly deliquescent” in data set [2] (up to 80% r.h., listed as hydrochloride, hydrochloride); “deliquescent” in data set [2] (up to 90% r.h.). The crystallinity result in data set [3] (hydrochloride) is recorded as “medium”; in data set [3] (listed as hydrochloride salt of compound of formula (I), hydrochloride), “medium crystallinity”. Further, the indications for polymorphism entry in data set [3] (listed as Hydrochloride Salt, hydrochloride) was “yes”; in data set [3] (listed as hydrochloride, hydrochloride), “Different polymorphic modifications”.
On to `CO[C@H]1COCC[C@H]1NC1CCN(C(=O)c2ncnc(NC[C@H]3CCC[C@@H](c4ccc(C)cc4)O3)c2C)CC1.CS(=O)(=O)O` [methanesulfonate salt of compound I, (4-((3R,4R)-3-methoxytetrahydro-pyran-4-ylamino)piperidin-1-yl)(5-methyl-6-(((2R,6S)-6-(p-tolyl)tetrahydro-2H-pyran-2-yl)methylamino)pyrimidin-4-yl)methanone methanesulfonate], for which, in data set [2] (up to 80% r.h.), the “hygroscopic behavior: deliquescence” value is reported as “irreversibly deliquescent”. Besides, the “hygroscopic behavior: uptake of water” value worked out at 30% in data set [2] (up to 80% r.h. (humidity range 10-80%), listed as Methanesulfonate Salt, methanesulfonate); 30% in data set [2] (up to 80% r.h. (humidity range 10-80%), methanesulfonate); 45% in data set [2] (up to 90% r.h.). Moreover, the crystallinity entry in data set [3] (listed as methanesulfonate salt of compound of formula (I), methanesulfonate) is “medium crystallinity”; in data set [3] (methanesulfonate), “Medium”. Further, the indications for polymorphism entry in data set [3] (listed as Methanesulfonate Salt, methanesulfonate) is listed as “No”; in data set [3] (listed as methanesulfonate, methanesulfonate), “only one polymorphic form”.

These data come from patent publication US10213428B2, “(4-((3R,4R)-3-methoxytetrahydro-pyran-4-ylamino)piperidin-1-yl)(5-methyl-6-(((2R,6S)-6-(p-tolyl)tetrahydro-2H-pyran-2-yl)methylamino)pyrimidin-4-yl)methanone citrate” (Centrexion Therapeutics Corporation, priority 2015, dated 2019).
